Non-standard residues stand in square brackets, D forms with d. *: point of attachment. Biotin = O=C1N[C@H]2[C@H](CS[C@H]2CCCCC(=O)*)N1; Cit = NC(=O)NCCC[C@H](N)C(=O)O
What was measured:
IgG ACPAs = assay: ACPA ELISA with anti-human IgG secondary antibody; type: binding
Method: The synthetic citrullnated peptides set forth in Example 6, which were designed from synovial proteins, were synthesized and evaluated for their ability to diagnose and/or prognose RA. […] The peptides were then tested for IgG ACPA dose-response in samples of synovial fluid taken from both healthy patients and patients with RA.

IgA/G/M ACPAs = system: IgA/G/M ACPAs
Method: (§1) This example describes an enzyme-linked immunosorbent assay (ELISA) for detecting (e.g., measuring) the presence (or absence) or level of anti-citrullinated protein antibodies (ACPAs) in an individual's sample. As a non-limiting example, a 96-well immunoassay plate was coated with avidin (e.g., neutravidin) and the plate was blocked with 5% bovine serum albumin in phosphate buffered saline. Biotinylated synthetic citrullinated peptides of the present invention were incubated with the avidin-coated plate. […] Unbound samples were washed out and RA-associated autoantibodies directed against the immobilized citrullinated peptide were detected with an enzyme-labeled (e.g., HRP-labeled) anti-human IgA, IgG, IgM, or IgA/G/M secondary antibody.

[1] = system: anti-citrullinated protein antibodies (ACPAs); details: FIG. 3 and FIG. 7; compared with the other peptides tested
Method: as §1

IgA ACPAs = system: IgA ACPAs
Method: as §1

IgM ACPAs = system: IgM ACPAs
Method: as §1

Substance	dose-response curve in ACPA ELISA (in words) [1]	also measured
Biotin-GGGATRSSAVRL[Cit]SSVPGVRLLQDS-NH2 [VMT3]	strong dose-response curves	sensitivity for autoantibodies of the IgG class (in words) (IgG ACPAs): particularly high sensitivity; sensitivity for autoantibodies of the IgA/G/M classes (in words) (IgA/G/M ACPAs): particularly high sensitivity
Biotin-GGGATRSSAV[Cit]LRSSVPGVRLLQDS-NH2 [VMT2]	strong dose-response curves	IgG ACPA positive response (strong/moderate) (IgG ACPAs; Example 7, FIGS. 20-27): moderate; sensitivity for autoantibodies of the IgA class (in words) (IgA ACPAs): particularly high sensitivity; sensitivity for autoantibodies of the IgM class (in words) (IgM ACPAs): particularly high sensitivity
Biotin-GGGAT[Cit]SSAV[Cit]L[Cit]SSVPGV[Cit]LLQDS-NH2 [VMT5]	weak dose-response curve	
Biotin-HSTK[Cit]GHAKSRPV[Cit]G-NH2 [FB4]	stronger dose-response curve	
Biotin-[Cit]PAPPPISGGGY[Cit]A[Cit]-NH2 [FB3]	stronger dose-response curve	
